As a reminder, the mortality is the percentage killed.

The values below come from patent US10212936B2, “Molecules having pesticidal utility, and intermediates, compositions, and processes, related thereto” (priority 2014, dated 2019).

What all share (type): in vivo
Series [1] has as its system Yellow Fever Mosquito (Aedes aegypti, AEDSAE). Nature of the series: Bioassay on Yellow Fever Mosquito (YFM) larvae, 96-well plate. As to conditions: about 1 day-old larvae, 4000 ppm DMSO master plate diluted, graded after 3 days. On the procedure: Example C: Bioassays on Yellow Fever Mosquito (Aedes aegypti, AEDSAE) (“YFM”)
Certain molecules disclosed in this document were tested against YFM using procedures described in the following paragraph. In the reporting of the results, the “YFM Rating Table” was used (See Table Section).
Master plates containing 400 μg of a molecule dissolved in 100 μL of dimethyl sulfoxide (DMSO) (equivalent to a 4000 ppm solution) are used. A master plate of assembled molecules contains 15 μL per well. To this plate, 135 μL of a 90:10 water:acetone mixture is added to each well. A robot (Biomek® NXP Laboratory Automation Workstation) is programmed to dispense 15 μL aspirations from the master plate into an empty 96-well shallow plate (“daughter” plate). There are 6 reps (“daughter” plates) created per master. The created daughter plates are then immediately infested with YFM larvae.
The day before plates are to be treated, mosquito eggs are placed in Millipore water containing liver powder to begin hatching (4 g. into 400 mL). After the daughter plates are created using the robot, they are infested with 220 μL of the liver powder/larval mosquito mixture (about 1 day-old larvae). After plates are infested with mosquito larvae, a non-evaporative lid is used to cover the plate to reduce drying. Plates are held at room temperature for 3 days prior to grading. After 3 days, each well is observed and scored based on mortality. The results are indicated in the table entitled “Table ABC: Biological Results” (See Table Section).

Series [2] relates to Beet Armyworm (Spodoptera exigua, LAPHEG). Nature of the series: Bioassay on Beet Armyworm (BAW), 128-well diet tray assay. Conditions: 168 h, 50 μg/cm^2 on artificial diet, second instar larvae, five to seven days, 25° C., read-out: BAW % Control (or Mortality) rating. On the procedure: (§1) Example A: Bioassays on Beet Armyworm (Spodoptera exigua, LAPHEG) (“BAW”), Corn Earworm (Helicoverpa zea, HELIZE) (“CEW”), and Cabbage Looper (Trichoplusia ni, TRIPNI) (“CL”)
(§2) Certain molecules disclosed in this document were tested against BAW, CEW, and CL using procedures described in the following examples. In the reporting of the results, the “BAW, CEW, & CL Rating Table” was used (See Table Section).
Bioassays on BAW were conducted using a 128-well diet tray assay. one to five second instar BAW larvae were placed in each well (3 mL) of the diet tray that had been previously filled with 1 mL of artificial diet to which 50 μg/cm^2 of the test molecule (dissolved in 50 μL of 90:10 acetone-water mixture) had been applied (to each of eight wells) and then allowed to dry. Trays were covered with a clear self-adhesive cover and held at 25° C., 14:10 light-dark for five to seven days. Percent mortality was recorded for the larvae in each well; activity in the eight wells was then averaged. The results are indicated in the table entitled “Table ABC: Biological Results” (See Table Section).

In series [3] the test system is Cabbage Looper (Trichoplusia ni, TRIPNI). Briefly: Bioassay on Cabbage Looper (CL), 128-well diet tray assay. Conditions: 168 h, 50 μg/cm^2 on artificial diet, second instar larvae, five to seven days, 25° C., read-out: CL % Control (or Mortality) rating. Here is the method:
as §1, §2
Bioassays on CL were conducted using a 128-well diet tray assay. one to five second instar CL larvae were placed in each well (3 mL) of the diet tray that had been previously filled with 1 mL of artificial diet to which 50 μg/cm^2 of the test molecule (dissolved in 50 μL of 90:10 acetone-water mixture) had been applied (to each of eight wells) and then allowed to dry. Trays were covered with a clear self-adhesive cover and held at 25° C., 14:10 light-dark for five to seven days. Percent mortality was recorded for the larvae in each well; activity in the eight wells was then averaged. The results are indicated in the table entitled “Table ABC: Biological Results” (See Table Section).

On to `Cc1ccc(C)c(C2=C(NC(=O)NCCc3ccc(-c4ncn(-c5ccc(OC(F)(F)F)cc5)n4)cc3)OCC2=O)c1` [F56, 1-(3-(2,5-Dimethylphenyl)-4-oxo-4,5-dihydrofuran-2-yl)-3-(4-(1-(4-(trifluoromethoxy)phenyl)-1H-1,2,4-triazol-3-yl)phenethyl)urea], for which the “YFM % Control (or Mortality) rating” value in series [1] is listed as “A (80-100)”. In addition, the mortality at 50 µg/cm2 in series [2] and in series [3] was 50 to 100% each time.

`CCOC(=O)c1c(C)csc1NC(=O)Nc1ccc(-c2ncn(-c3ccc(OC(F)(F)F)cc3)n2)cc1` [F1, ethyl 4-methyl-2-(3-(4-(1-(4-(trifluoromethoxy)phenyl)-1H-1,2,4-triazol-3-yl)phenyl)ureido)thiophene-3-carboxylate]: the “YFM % Control (or Mortality) rating” value in series [1] is “D (No activity noticed in this bioassay)”. Also, the mortality at 50 µg/cm2 in series [2] and in series [3] was 0% each time.

`O=C(Nc1ccc(-c2ncn(-c3ccc(OC(F)(F)F)cc3)n2)cc1)Nc1nccn1-c1cc(Cl)cc(Cl)c1` [F28, 1-(1-(3,5-Dichlorophenyl)-1H-imidazol-2-yl)-3-(4-(1-(4-(trifluoromethoxy)phenyl)-1H-1,2,4-triazol-3-yl)phenyl)urea]: the mortality at 50 µg/cm2 in series [2] is 50 to 100%; in series [3], 0%.

On to `Cc1cc(C)c(-c2c(NC(=O)NCCc3ccc(-c4ncn(-c5ccc(OC(F)(F)F)cc5)n4)cc3)on(C)c2=O)c(C)c1` [F59, 1-(4-Mesityl-2-methyl-3-oxo-2,3-dihydroisoxazol-5-yl)-3-(4-(1-(4-(trifluoromethoxy)phenyl)-1H-1,2,4-triazol-3-yl)phenethyl)urea], for which, in series [1], the “YFM % Control (or Mortality) rating” value was “A (80-100)”. Further, the mortality at 50 µg/cm2 in series [2] and in series [3] was 50 to 100% in each case.

Consider `O=C(NCCc1ccc(-c2ncn(-c3ccc(OC(F)(F)F)cc3)n2)cc1)Nc1nccs1` [F50, 1-(thiazol-2-yl)-3-(4-(1-(4-(trifluoromethoxy)phenyl)-1H-1,2,4-triazol-3-yl)phenethyl)urea], for which the “YFM % Control (or Mortality) rating” value in series [1] was “D (No activity noticed in this bioassay)”. Also, the mortality at 50 µg/cm2 in series [2] and in series [3] was 0% throughout.

As to `O=C(NCCc1ccc(-c2ncn(-c3ccc(OC(F)(F)F)cc3)n2)cc1)Nc1scnc1-c1c(Cl)cccc1Cl` [F64, 1-(4-(2,6-Dichlorophenyl)thiazol-5-yl)-3-(4-(1-(4-(trifluoromethoxy)phenyl)-1H-1,2,4-triazol-3-yl)phenethyl)urea], the “YFM % Control (or Mortality) rating” value in series [1] is “A (80-100)”. Besides, the figures for the mortality at 50 µg/cm2 in series [2] and in series [3] were 0% and 50 to 100%, respectively.

Regarding `Cc1ccc(C)c(-c2ncsc2NC(=O)NCCc2ccc(-c3ncn(-c4ccc(OC(F)(F)F)cc4)n3)cc2)c1` [F62, 1-(4-(2,5-Dimethylphenyl)thiazol-5-yl)-3-(4-(1-(4-(trifluoromethoxy)phenyl)-1H-1,2,4-triazol-3-yl)phenethyl)urea], the “YFM % Control (or Mortality) rating” value in series [1] is listed as “A (80-100)”. Also, the results for the mortality at 50 µg/cm2 in series [2] and in series [3] were 0% and 50 to 100%, respectively.

Regarding `CC(C)CC(C)c1sccc1NC(=O)Nc1ccc(-c2ncn(-c3ccc(OC(F)(F)F)cc3)n2)cc1` (stereo not drawn) [F8, 1-(2-(4-Methylpentan-2-yl)thiophen-3-yl)-3-(4-(1-(4-(trifluoromethoxy)phenyl)-1H-1,2,4-triazol-3-yl)phenyl)urea], the “YFM % Control (or Mortality) rating” value in series [1] is listed as “D (No activity noticed in this bioassay)”. Further, the mortality at 50 µg/cm2 in series [2] is 0%; in series [3], 50 to 100%.

As to `COc1ccc(-c2ncsc2NC(=O)Nc2ccc(-c3ncn(-c4ccc(OC(F)(F)F)cc4)n3)cc2)c(C)c1` [F46, 1-(4-(4-Methoxy-2-methylphenyl)thiazol-5-yl)-3-(4-(1-(4-(trifluoromethoxy)phenyl)-1H-1,2,4-triazol-3-yl)phenyl)urea], the “YFM % Control (or Mortality) rating” value in series [1] is recorded as “A (80-100)”. The mortality at 50 µg/cm2 in series [2] and in series [3] was 50 to 100% in each case.

As for `CCc1ccccc1-c1ncsc1NC(=O)Nc1ccc(-c2ncn(-c3ccc(OC(F)(F)F)cc3)n2)cc1` [F49, 1-(4-(2-ethylphenyl)thiazol-5-yl)-3-(4-(1-(4-(trifluoromethoxy)phenyl)-1H-1,2,4-triazol-3-yl)phenyl)urea], the mortality at 50 µg/cm2 in series [2] and in series [3] was 50 to 100% each time.

Regarding `COc1ccc(-c2ncsc2NC(=O)NCCc2ccc(-c3ncn(-c4ccc(OC(F)(F)F)cc4)n3)cc2)c(C)c1` [F63, 1-(4-(4-Methoxy-2-methylphenyl)thiazol-5-yl)-3-(4-(1-(4-(trifluoromethoxy)phenyl)-1H-1,2,4-triazol-3-yl)phenethyl)urea], in series [1], the “YFM % Control (or Mortality) rating” value is “A (80-100)”. In addition, the mortality at 50 µg/cm2 in series [2] was 0%; in series [3] it was 50 to 100%.

For the compound `O=C(NCCc1ccc(-c2ncn(-c3ccc(OC(F)(F)F)cc3)n2)cc1)Nc1ccnn1-c1ccccc1` [F51, 1-(1-phenyl-1H-pyrazol-5-yl)-3-(4-(1-(4-(trifluoromethoxy)phenyl)-1H-1,2,4-triazol-3-yl)phenethyl)urea], the mortality at 50 µg/cm2 in series [2] and in series [3] was 0% throughout.

Regarding `Cc1ccc(C)c(-c2ncsc2NC(=O)Nc2ccc(-c3ncn(-c4ccc(OC(F)(F)F)cc4)n3)cc2)c1` [F47, 1-(4-(2,5-Dimethylphenyl)thiazol-5-yl)-3-(4-(1-(4-(trifluoromethoxy)phenyl)-1H-1,2,4-triazol-3-yl)phenyl)urea], the “YFM % Control (or Mortality) rating” value in series [1] is recorded as “A (80-100)”. Besides, the mortality at 50 µg/cm2 in series [2] and in series [3] was 50 to 100% throughout.

In the case of `Cc1ccc(C)c(-c2c(NC(=O)NCCc3ccc(-c4ncn(-c5ccc(OC(F)(F)F)cc5)n4)cc3)on(C)c2=O)c1` [F57, 1-(4-(2,5-Dimethylphenyl)-2-methyl-3-oxo-2,3-dihydroisoxazol-5-yl)-3-(4-(1-(4-(trifluoromethoxy)phenyl)-1H-1,2,4-triazol-3-yl)phenethyl)urea], the “YFM % Control (or Mortality) rating” value in series [1] was “A (80-100)”. Besides, the mortality at 50 µg/cm2 in series [2] and in series [3] was 50 to 100% throughout.

`Cc1cc(C)c(C2=C(NC(=O)NCCc3ccc(-c4ncn(-c5ccc(OC(F)(F)F)cc5)n4)cc3)OCC2=O)c(C)c1` [F53, 1-(3-mesityl-4-oxo-4,5-dihydrofuran-2-yl)-3-(4-(1-(4-(trifluoromethoxy)phenyl)-1H-1,2,4-triazol-3-yl)phenethyl)urea]: the “YFM % Control (or Mortality) rating” value in series [1] was “A (80-100)”. Moreover, the figures for the mortality at 50 µg/cm2 in series [2] and in series [3] were 0 to 50% and 50 to 100%, respectively.

For the compound `O=C(Nc1ccc(-c2ncn(-c3ccc(OC(F)(F)F)cc3)n2)cc1)Nc1nccn1-c1cccnc1` [F32, 1-(1-(Pyridin-3-yl)-1H-imidazol-2-yl)-3-(4-(1-(4-(trifluoromethoxy)phenyl)-1H-1,2,4-triazol-3-yl)phenyl)urea], the mortality at 50 µg/cm2 fell in the range of 50 to 100% in series [2] and 0 to 50% in series [3].

Turning to `O=C(Nc1ccc(-c2ncn(-c3ccc(OC(F)(F)F)cc3)n2)cc1)Nc1scnc1-c1c(Cl)cccc1Cl` [F48, 1-(4-(2,6-Dichlorophenyl)thiazol-5-yl)-3-(4-(1-(4-(trifluoromethoxy)phenyl)-1H-1,2,4-triazol-3-yl)phenyl)urea], the “YFM % Control (or Mortality) rating” value in series [1] was “A (80-100)”.
